Measurements reported in US6593342B1, “Pharmaceutical compositions comprising 2-quinolones” (Laboratoire L. Lafon, priority 1998, dated 2003).

Columns and labels:
J82 = assay: MTT test, J82; type: cell-based; settings: Homo sapiens, 10^−5 M, 72 hours, control = 100%, mean ± SEM, read-out: average optical density (MTT), percentage relative to control
Description: (§1) The influence of the compounds of formulae (I) and (Ia) on non-clonogenic cells was evaluated with the aid of the MTT calorimetric test.
(§2) The principle of the MTT test is based on the mitochondrial reduction, by the metabolically active live cells, of the yellow-colored product MTT (3-(4,5-dimethylthiazol-2-yl)-2,5-diphenyltetrazolium bromide) to a blue-colored product, formazan. The amount of formazan thus obtained is directly proportional to the amount of live cells present in the culture well(s). This amount of formazan is measured by spectrophotometry.
(§3) The cell lines are maintained as a monolayer culture at 37° C. in stoppered culture dishes containing MEM 25 MM HEPES (Minimum Essential Medium) base medium. This medium is suited to the growth of a range of various mammalian diploid or primary cells. This medium is then supplemented with:
(§4) an amount of 5% of FCS (Foetal Calf Serum) decomplemented at 56° C. for 1 hour,
(§5) 0.6 mg/ml of L-glutamine,
(§6) 200 μg/ml of streptomycin,
(§7) The 12 human cancer cell lines which were used were obtained from the American Type Culture Collection (ATCC, Rockville, Md., USA). These 12 cell lines are:
(§8) J82 (code ATCC: HTB-1) and T24 (code ATCC: HTB-4) which are two bladder cancers,
(§9) Experimentally: 100 μl of a cell suspension containing 20 000 to 50 000 (depending on the cell type used) cells/ml of culture medium are inoculated in 96-well flat-bottomed multi-well plates and are incubated at 37° C., under an atmosphere comprising 5% CO2 and 70% humidity. After incubation for 24 hours, the culture medium is replaced with 100 μl of fresh medium containing either the various test compounds at concentrations ranging from 10^−5 to 10^−10 M or the solvent used to dissolve the test products (control condition). After incubation for 72 hours under the above conditions, the culture medium is replaced with 100 μl of a yellowish solution of MTT dissolved at a rate of 1 mg/ml in RPMI 1640. The microplates are reincubated for 3 hours at 37° C. and are then centrifuged for 10 minutes at 400×g. The yellowish solution of MTT is removed and the blue formazan crystals formed in the cell are dissolved in 100 μl of DMSO. The microplates are then shaken for 5 minutes. The intensity of the resulting blue coloration, and thus of the conversion of the yellow product MTT into blue formazan by the cells that are still alive at the end of the experiment, is quantified by spectrophotometry using a Dynatech Immunoassay System machine at wavelengths of 570 nm and 630 nm corresponding, respectively, to the maximum absorption wavelengths of formazan and to the background noise. Software incorporated in the spectrophotometer calculates the average optical density values and the standard deviation (SD) and standard error of mean (SEM) values.
(§10) By way of example, the results of the average optical density, expressed as a percentage relative to the average optical density measured under the control condition (set equal to 100%), obtained at a concentration of 10^−5 M on the 12 abovementioned tumor cell lines are given in Table II.

T-47D = assay: MTT test, T-47D; type: cell-based; settings: Homo sapiens, T47D, 10^−5 M, 72 hours, control = 100%, mean ± SEM, read-out: average optical density (MTT), percentage relative to control
Description: as §1, §2, §3, §4, §5, §6, §7
(§11) T-47D (code ATCC: HTB-133) and MCF7 (code ATCC: HTB-22) which are two breast cancers,
as §9, §10

U-87MG = assay: MTT test, U-87MG; type: cell-based; settings: Homo sapiens, 10^−5 M, 72 hours, control = 100%, mean ± SEM, read-out: average optical density (MTT), percentage relative to control
Description: as §1, §2, §3, §4, §5, §6, §7
(§12) U-373MG (code ATCC: HTB-17) and U-87MG (code ATCC: HTB-14) which are two glioblastomas,
as §9, §10

PC-3 = assay: MTT test, PC-3; type: cell-based; settings: Homo sapiens, 10^−5 M, 72 hours, control = 100%, mean ± SEM, read-out: average optical density (MTT), percentage relative to control
Description: as §1, §2, §3, §4, §5, §6, §7
PC-3 (code ATCC: CRL-1435) which is a prostate cancer.
as §9, §10

MCF7 = assay: MTT test, MCF7; type: cell-based; settings: Homo sapiens, 10^−5 M, 72 hours, control = 100%, mean ± SEM, read-out: average optical density (MTT), percentage relative to control
Description: as §1, §2, §3, §4, §5, §6, §7, §11, §9, §10

HCT-15 = assay: MTT test, HCT-15; type: cell-based; settings: Homo sapiens, 10^−5 M, 72 hours, control = 100%, mean ± SEM, read-out: average optical density (MTT), percentage relative to control
Description: as §1, §2, §3, §4, §5, §6, §7
(§13) HTC-15 (code ATCC: CCL-225) and LoVo (code ATCC: CCL-229) which are two colorectal cancers,
as §9, §10

A-427 = assay: MTT test, A-427; type: cell-based; settings: Homo sapiens, 10^−5 M, 72 hours, control = 100%, mean ± SEM, read-out: average optical density (MTT), percentage relative to control
Description: as §1, §2, §3, §4, §5, §6, §7
(§14) A549 (code ATCC: CCL-185) and A-427 (code ATCC: HTB-53) which are two non-small-cell lung cancers,
as §9, §10

LoVo = assay: MTT test, LoVo; type: cell-based; settings: Homo sapiens, 10^−5 M, 72 hours, control = 100%, mean ± SEM, read-out: average optical density (MTT), percentage relative to control
Description: as §1, §2, §3, §4, §5, §6, §7, §13, §9, §10

[1] = Determination of the maximum tolerated dose (MTD); settings: mouse, in vivo, ip; B6D2F1/Jico mice; single intraperitoneal administration, 2.5 to 160 mg/kg; survival over 14 days
Description: 3.—Determination of the Maximum Tolerated Dose (MTD):
The evaluation of the maximum tolerated dose was carried out on 4- to 6-week-old B6D2F1/Jico mice. The compounds were administered intraperitoneally at increasing doses graduating from 2.5 to 160 mg/kg. The value of the MTD (expressed in mg/kg) is determined from the observation of the survival rate of the animals over a 14-day period after a single administration of the product under consideration. The weight change of the animals is also monitored during this period. When the value of the MTD is greater than 160 mg/kg, the MTD value is likened to 160 mg/kg by default.
The results of the estimation of the maximum tolerated dose (MTD) are collated in the following table: […]

A549 = assay: MTT test, A549; type: cell-based; settings: Homo sapiens, 10^−5 M, 72 hours, control = 100%, mean ± SEM, read-out: average optical density (MTT), percentage relative to control
Description: as §1, §2, §3, §4, §5, §6, §7, §14, §9, §10

U-373MG = assay: MTT test, U-373MG; type: cell-based; settings: Homo sapiens, U373 MG, 10^−5 M, 72 hours, control = 100%, mean ± SEM, read-out: average optical density (MTT), percentage relative to control
Description: as §1, §2, §3, §4, §5, §6, §7, §12, §9, §10

SW1088 = assay: MTT test, SW1088; type: cell-based; settings: Homo sapiens, 10^−5 M, 72 hours, control = 100%, mean ± SEM, read-out: average optical density (MTT), percentage relative to control
Description: as §1, §2, §3, §4, §5, §6, §7
SW1088 (code ATCC: HTB-12) which is an astrocytoma,
as §9, §10

T24 = assay: MTT test, T24; type: cell-based; settings: Homo sapiens, T-24, 10^−5 M, 72 hours, control = 100%, mean ± SEM, read-out: average optical density (MTT), percentage relative to control
Description: as §1, §2, §3, §4, §5, §6, §7, §8, §9, §10

SMILES	viability at 10 µM (J82)	viability at 10 µM (T-47D)	viability at 10 µM (U-87MG)	viability at 10 µM (PC-3)	viability at 10 µM (MCF7)	viability at 10 µM (HCT-15)	viability at 10 µM (A-427)	viability at 10 µM (LoVo)	MTD at 14 day [1]	viability at 10 µM (A549)	viability at 10 µM (U-373MG)	viability at 10 µM (SW1088)	viability at 10 µM (T24)
COc1cc(OC)c2cc(-c3ccccc3)c(O)nc2c1 [CRL8330, 5,7-Dimethoxy-3-phenyl-1,2-dihydro-2-quinolinone]	70.5 ± 2.4%	77.6 ± 3%	86.6 ± 0.7%	48.5 ± 2.1%	87.2 ± 3%	94.7 ± 2.1%	59.8 ± 1%	59.9 ± 4.2%	> 160 mg/kg	76.3 ± 2.4%	75.5 ± 3.7%	73.3 ± 1.8%	57.4 ± 2.3%
COc1ccc(-c2cc3c(OC)cc(OC)cc3n(CC#N)c2=O)cc1 [CRL8255, [5,7-Dimethoxy-3-(4-methoxyphenyl)-2-oxo-1,2-dihydro-1-quinolinyl]acetonitrile]	36.2 ± 0.5%	73.7 ± 3.3%	72.5 ± 1.1%	77.7 ± 1.2%	71.5 ± 1.4%	58.7 ± 3%	76.3 ± 1.5%	56.9 ± 1.1%	> 160 mg/kg	79.1 ± 2.1%	68.5 ± 2.7%	67.5 ± 1.5%	79.5 ± 2.2%
COc1ccc(-c2cc3c(OC)ccc(OC)c3nc2O)cc1 [CRL8336, 5,8-Dimethoxy-3-(4-methoxyphenyl)-1,2-dihydro-2-quinolinone]	90.9 ± 0.9%	96.2 ± 2.9%	82.3 ± 1.8%	91.7 ± 1.5%	73.9 ± 0.7%	93.1 ± 3.2%	87.9 ± 3.1%	92.6 ± 3.4%	> 160 mg/kg	114 ± 1.9%	82.3 ± 1.6%	101 ± 4.3%	88.2 ± 1.4%
COc1ccc(-c2cc3c(OC)cc(OC)cc3n(CC(=O)O)c2=O)cc1 [CRL8317, 2-[5,7-Dimethoxy-3-(4-methoxyphenyl)-2-oxo-1,2-dihydro-1-quinolinyl]acetic Acid]	83.6 ± 1.8%	95 ± 2.5%	91 ± 4.1%	97.9 ± 1.1%	96 ± 2.1%	104 ± 2.6%	91.3 ± 2%	86.8 ± 2.8%	> 160 mg/kg	94.7 ± 2.2%	91.2 ± 1.9%	103 ± 2.3%	91.4 ± 4.3%
Cn1c(=O)c(-c2ccc(O)cc2)cc2c(O)cc(O)cc21 [CRL8321, 5,7-Dihydroxy-3-(4-hydroxyphenyl)-1-methyl-1,2-dihydro-2-quinolinone]	88.6 ± 0.9%	91.5 ± 1.2%	96.5 ± 1.2%	102 ± 3.1%	96.6 ± 0.9%	118 ± 1.6%	107 ± 1.4%	108 ± 1.1%	> 160 mg/kg	99.4 ± 1.3%	97.1 ± 2.4%	97.2 ± 1.8%	103 ± 1.7%
COc1cc(OC)c2cc(-c3ccc(O)cc3)c(O)nc2c1 [CRL8284, 5,7-Dimethoxy-3-(4-hydroxyphenyl)-1,2-dihydro-2-quinolinone]	48.8 ± 0.7%	89.9 ± 1.9%	88.1 ± 2.2%	83.8 ± 1%	66.6 ± 2.7%	77.3 ± 1.8%	96 ± 2%	102 ± 1.3%	> 160 mg/kg	91.7 ± 1.6%	87.7 ± 1.4%	78.3 ± 1.6%	68.5 ± 0.9%
COc1cccc2cc(-c3ccccc3)c(O)nc12 [CRL8339, 8-Methoxy-3-phenyl-1,2-dihydro-2-quinolinone]	83.7 ± 0.6%	81 ± 2.8%	69.1 ± 2.1%	84.3 ± 1.8%	82.7 ± 3.5%	65.5 ± 2.2%	52.3 ± 2.3%	74.4 ± 1.8%	> 160 mg/kg	49.6 ± 2.2%	73.6 ± 1.8%	87.1 ± 2.6%	87.4 ± 2%
COc1ccc(-c2cc3c(OC)cc(OC)cc3n(C)c2=S)cc1 [CRL8245, 5,7-Dimethoxy-3-(4-methoxyphenyl)-1-methyl-1,2-dihydro-2-quinolinethione]	31.1 ± 0.6%	59.6 ± 2.9%	58.6 ± 1.7%	74.4 ± 1.9%	46.9 ± 1%	35.8 ± 1.2%	69 ± 1.9%	65.5 ± 1.1%	> 160 mg/kg	74.1 ± 2.1%	63.7 ± 2.7%	75.1 ± 2%	51.1 ± 1.9%
